Earlier results as cited in US10813929B2, “Treating cancer with ATR inhibitors” (VERTEX PHARMACEUTICALS INCORPORATED, priority 2011, dated 2020).

System: pancreatic cancer
Conditions: treatment with gemcitabine, increased from 10%; cited from earlier work

Nc1ccn([C@@H]2O[C@H](CO)[C@@H](O)C2(F)F)c(=O)n1 [gemcitabine]
5-year survival: 20%
